Source: US11629201B2, “PSMA-binding agents and uses thereof” (ITM Isotope Technologies Munich SE, priority 2017, dated 2023)

System: PC-3 PIP/flu tumor-bearing mice
Assay: Biodistribution studies in PC-3 PIP/flu tumor-bearing mice
Conditions: for Tumor-to-blood / Tumor-to-kidney / Tumor-to-liver: PC-3 PIP tumor

Cc1ccc(CCCC(=O)NCCCCC(NC(=O)CN2CCN(CC(=O)O)CCN(CC(=O)O)CCN(CC(=O)O)CC2)C(=O)NCC2CCC(C(=O)NC(Cc3ccc4ccccc4c3)C(=O)NCCCCC(NC(=O)NC(CCC(=O)O)C(=O)O)C(=O)O)CC2)cc1 (stereo not drawn) [44Sc-PSMA-ALB-06, metal not drawn] gave a Tumor-to-blood (1 h p.i.) of 0.94 ± 0.11, a Tumor-to-kidney (1 h p.i.) of 0.77 ± 0.12 and a Tumor-to-liver (1 h p.i.) of 4.28 ± 0.52. For the same compound, the Blood (4 h p.i.) was 18.4 ± 1.00 % IA/g, the Bone (4 h p.i.) was 2.50 ± 0.35 % IA/g and the Heart (4 h p.i.) was 6.48 ± 0.50 % IA/g. The Intestines (4 h p.i.) was 2.50 ± 0.13 % IA/g, the Kidneys (4 h p.i.) was 28.8 ± 2.46 % IA/g and the Muscle (4 h p.i.) was 2.24 ± 0.10 % IA/g. The “PC-3 PIP Tumor” value (4 h p.i.) was 61.7 ± 7.32 % IA/g, the “PC-3 flu Tumor” value (4 h p.i.) was 4.37 ± 0.43 % IA/g and the Salivary glands (4 h p.i.) was 4.55 ± 0.41 % IA/g. It also gave a Spleen (4 h p.i.) of 4.10 ± 0.54 % IA/g, a Tumor-to-blood (4 h p.i.) of 3.35 ± 0.20 and a Tumor-to-kidney (4 h p.i.) of 2.14 ± 0.15. The Tumor-to-liver (4 h p.i.) was 17.93 ± 3.32, the Blood (6 h p.i.) was 15.6 ± 0.75 % IA/g and the Bone (6 h p.i.) was 2.54 ± 0.27 % IA/g. It also gave an Intestines (6 h p.i.) of 2.07 ± 0.34 % IA/g, a Kidneys (6 h p.i.) of 21.7 ± 0.42 % IA/g and a Liver (6 h p.i.) of 3.67 ± 0.68 % IA/g. The Lung (6 h p.i.) was 9.44 ± 0.86 % IA/g, the “PC-3 PIP Tumor” value (6 h p.i.) was 72.9 ± 11.1 % IA/g and the “PC-3 flu Tumor” value (6 h p.i.) was 3.87 ± 0.45 % IA/g. It also gave a Salivary gland (6 h p.i.) of 4.03 ± 0.22 % IA/g, a Spleen (6 h p.i.) of 3.67 ± 0.37 % IA/g and a Tumor-to-blood (6 h p.i.) of 4.69 ± 0.67. The Tumor-to-kidney (6 h p.i.) was 3.35 ± 0.42 and the Tumor-to-liver (6 h p.i.) was 20.2 ± 3.43.
O=C(O)CCC(NC(=O)NC(CCCCNC(=O)C(Cc1ccc2ccccc2c1)NC(=O)C1CCC(CNC(=O)C(CCCCNC(=O)CCCc2ccc(I)cc2)NC(=O)CN2CCN(CC(=O)O)CCN(CC(=O)O)CCN(CC(=O)O)CC2)CC1)C(=O)O)C(=O)O (stereo not drawn) [^177Lu-PSMA-ALB-03, metal not drawn] gave a Tumor-to-blood (1 h p.i.) of 0.31 ± 0.04, a Tumor-to-kidney (1 h p.i.) of 0.48 ± 0.07 and a Tumor-to-liver (1 h p.i.) of 1.64 ± 0.61. It also gave a Blood (4 h p.i.) of 24.3 ± 3.60 % IA/g, a Bone (4 h p.i.) of 2.47 ± 0.39 % IA/g and a Heart (4 h p.i.) of 8.54 ± 1.18 % IA/g. It also gave an Intestines (4 h p.i.) of 3.71 ± 1.09 % IA/g, a Kidneys (4 h p.i.) of 24.5 ± 4.38 % IA/g and a Liver (4 h p.i.) of 4.56 ± 1.18 % IA/g. The Lung (4 h p.i.) was 14.21 ± 3.49 % IA/g, the Muscle (4 h p.i.) was 2.04 ± 0.37 % IA/g and the “PC-3 PIP Tumor” value (4 h p.i.) was 19.9 ± 0.79 % IA/g. The “PC-3 flu Tumor” value (4 h p.i.) was 5.32 ± 1.06 % IA/g, the Salivary glands (4 h p.i.) was 5.02 ± 1.17 % IA/g and the Spleen (4 h p.i.) was 4.76 ± 1.12 % IA/g. The Stomach (4 h p.i.) was 2.86 ± 1.03 % IA/g, the Tumor-to-blood (4 h p.i.) was 0.83 ± 0.10 and the Tumor-to-kidney (4 h p.i.) was 0.83 ± 0.14. The Tumor-to-liver (4 h p.i.) was 4.60 ± 1.34, the Blood (8 h p.i.) was 23.5 ± 0.74 % IA/g and the Bone (8 h p.i.) was 2.71 ± 0.21 % IA/g. It also gave a Heart (8 h p.i.) of 8.12 ± 0.46 % IA/g, an Intestines (8 h p.i.) of 3.70 ± 0.40 % IA/g and a Kidneys (8 h p.i.) of 28.8 ± 1.49 % IA/g. For the same compound, the Liver (8 h p.i.) was 4.87 ± 0.42 % IA/g, the Lung (8 h p.i.) was 12.21 ± 1.32 % IA/g and the Muscle (8 h p.i.) was 2.01 ± 0.10 % IA/g. For the same compound, the “PC-3 PIP Tumor” value (8 h p.i.) was 31.0 ± 5.79 % IA/g, the “PC-3 flu Tumor” value (8 h p.i.) was 5.98 ± 0.91 % IA/g and the Salivary glands (8 h p.i.) was 5.49 ± 0.59 % IA/g. It also gave a Spleen (8 h p.i.) of 4.10 ± 0.14 % IA/g, a Stomach (8 h p.i.) of 2.92 ± 0.17 % IA/g and a Tumor-to-blood (8 h p.i.) of 1.32 ± 0.29. The Tumor-to-kidney (8 h p.i.) was 1.07 ± 0.18, the Tumor-to-liver (8 h p.i.) was 6.38 ± 1.28 and the Blood (24 h p.i.) was 17.3 ± 1.38 % IA/g. It also gave a Bone (24 h p.i.) of 2.02 ± 0.31 % IA/g, a Heart (24 h p.i.) of 6.60 ± 1.01 % IA/g and an Intestines (24 h p.i.) of 2.19 ± 0.23 % IA/g. For the same compound, the Kidneys (24 h p.i.) was 24.7 ± 1.85 % IA/g, the Liver (24 h p.i.) was 3.35 ± 0.26 % IA/g and the Lung (24 h p.i.) was 9.86 ± 0.57 % IA/g. For the same compound, the Muscle (24 h p.i.) was 1.61 ± 0.18 % IA/g, the “PC-3 PIP Tumor” value (24 h p.i.) was 53.8 ± 5.61 % IA/g and the “PC-3 flu Tumor” value (24 h p.i.) was 5.47 ± 0.67 % IA/g. The Salivary glands (24 h p.i.) was 4.69 ± 0.33 % IA/g, the Spleen (24 h p.i.) was 3.75 ± 0.21 % IA/g and the Stomach (24 h p.i.) was 1.39 ± 0.27 % IA/g. For the same compound, the Tumor-to-blood (24 h p.i.) was 3.13 ± 0.35, the Tumor-to-kidney (24 h p.i.) was 2.17 ± 0.06 and the Tumor-to-liver (24 h p.i.) was 16.1 ± 1.75. It also gave a Blood (48 h p.i.) of 12.5 ± 3.78 % IA/g, a Bone (48 h p.i.) of 1.63 ± 0.56 % IA/g and a Heart (48 h p.i.) of 4.40 ± 1.18 % IA/g. The Intestines (48 h p.i.) was 1.73 ± 0.50 % IA/g, the Kidneys (48 h p.i.) was 22.6 ± 2.69 % IA/g and the Liver (48 h p.i.) was 2.53 ± 0.77 % IA/g. The Lung (48 h p.i.) was 7.45 ± 2.06 % IA/g, the Muscle (48 h p.i.) was 1.32 ± 0.41 % IA/g and the “PC-3 PIP Tumor” value (48 h p.i.) was 72.3 ± 24.7 % IA/g. For the same compound, the “PC-3 flu Tumor” value (48 h p.i.) was 5.69 ± 3.65 % IA/g, the Salivary glands (48 h p.i.) was 3.45 ± 1.09 % IA/g and the Spleen (48 h p.i.) was 3.79 ± 0.89 % IA/g. It also gave a Stomach (48 h p.i.) of 1.49 ± 0.48 % IA/g, a Tumor-to-blood (48 h p.i.) of 5.94 ± 1.53 and a Tumor-to-kidney (48 h p.i.) of 3.17 ± 0.84. For the same compound, the Tumor-to-liver (48 h p.i.) was 29.0 ± 5.26, the Blood (96 h p.i.) was 7.37 ± 0.64 % IA/g and the Bone (96 h p.i.) was 1.07 ± 0.27 % IA/g. The Heart (96 h p.i.) was 3.15 ± 0.28 % IA/g, the Intestines (96 h p.i.) was 1.21 ± 0.26 % IA/g and the Kidneys (96 h p.i.) was 16.1 ± 1.69 % IA/g. It also gave a Liver (96 h p.i.) of 1.78 ± 0.03 % IA/g, a Lung (96 h p.i.) of 5.56 ± 0.54 % IA/g and a Muscle (96 h p.i.) of 0.91 ± 0.15 % IA/g. For the same compound, the “PC-3 PIP Tumor” value (96 h p.i.) was 75.7 ± 2.46 % IA/g, the “PC-3 flu Tumor” value (96 h p.i.) was 3.52 ± 0.54 % IA/g and the Salivary glands (96 h p.i.) was 2.19 ± 0.1 % IA/g. For the same compound, the Spleen (96 h p.i.) was 3.23 ± 0.53 % IA/g, the Stomach (96 h p.i.) was 0.91 ± .010 % IA/g and the Tumor-to-blood (96 h p.i.) was 10.3 ± 0.57. It also gave a Tumor-to-kidney (96 h p.i.) of 4.7 ± 0.38, a Tumor-to-liver (96 h p.i.) of 42.6 ± 1.90 and a Blood (144 h p.i.) of 6.02 ± 0.60 % IA/g. The Bone (144 h p.i.) was 1.14 ± 0.23 % IA/g, the Heart (144 h p.i.) was 2.55 ± 0.25 % IA/g and the Intestines (144 h p.i.) was 0.88 ± 0.18 % IA/g. The Kidneys (144 h p.i.) was 11.2 ± 3.82 % IA/g, the Liver (144 h p.i.) was 1.50 ± 0.14 % IA/g and the Lung (144 h p.i.) was 4.99 ± 1.00 % IA/g. The Muscle (144 h p.i.) was 0.54 ± 0.07 % IA/g, the “PC-3 PIP Tumor” value (144 h p.i.) was 68.9 ± 8.80 % IA/g and the “PC-3 flu Tumor” value (144 h p.i.) was 2.77 ± 0.41 % IA/g. It also gave a Salivary glands (144 h p.i.) of 1.67 ± 0.27 % IA/g, a Spleen (144 h p.i.) of 2.94 ± 0.39 % IA/g and a Stomach (144 h p.i.) of 0.73 ± 0.10 % IA/g. The Tumor-to-blood (144 h p.i.) was 11.4 ± 0.47, the Tumor-to-kidney (144 h p.i.) was 6.44 ± 1.27 and the Tumor-to-liver (144 h p.i.) was 46.0 ± 2.53. For the same compound, the Blood (192 h p.i.) was 5.29 ± 0.18 % IA/g, the Bone (192 h p.i.) was 0.83 ± 0.22 % IA/g and the Heart (192 h p.i.) was 2.08 ± 0.14 % IA/g. For the same compound, the Intestines (192 h p.i.) was 0.96 ± 0.03 % IA/g, the Kidneys (192 h p.i.) was 7.35 ± 0.92 % IA/g and the Liver (192 h p.i.) was 1.25 ± 0.20 % IA/g. For the same compound, the Lung (192 h p.i.) was 4.17 ± 0.68 % IA/g, the Muscle (192 h p.i.) was 0.62 ± 0.04 % IA/g and the “PC-3 PIP Tumor” value (192 h p.i.) was 58.9 ± 12.4 % IA/g. For the same compound, the “PC-3 flu Tumor” value (192 h p.i.) was 2.42 ± 0.23 % IA/g, the Salivary glands (192 h p.i.) was 1.55 ± 0.06 % IA/g and the Spleen (192 h p.i.) was 3.13 ± 0.90 % IA/g. It also gave a Stomach (192 h p.i.) of 0.78 ± 0.07 % IA/g, a Tumor-to-blood (192 h p.i.) of 11.1 ± 1.97 and a Tumor-to-kidney (192 h p.i.) of 7.97 ± 0.70. It also gave a Tumor-to-liver (192 h p.i.) of 47.1 ± 2.44.
